Test results published in patent US8497240B2 (priority 2006, dated 2013).
Several values for one entry are separate records, joined by “and”; a condition that tells them apart may be missing. Equal entries are not always repeated. Where two headings read alike, the source gives them in different places. Ends that are not written are not given here.

Experiments:
[1] = format: in vivo, NIH/Swiss mice; conditions: for Basal Glucose Lowering at Peptide Conc. of 80 nmol/kg / Basal Gluc. Low. 80 nmol/Kg: AUC240; for basal glucose lowering (% maximal decrease): mouse, in vivo
Protocol: (§1) In FIG. 3A, bars represent mean±sd, n=6-10. […] Gavage (1.5 g/kg) was given at t=0, Sample was taken at t=30 min. […] In FIG. 3B, points represent mean±sem, n=8-15.
Points represent mean±sem.

[2] = Intravenous glucose tolerance test (IVGTT), i.v. infusion; format: in vivo, rat; conditions: for Standard IVGTT assay IV infusion (insulin AUC 0-30 min): IV infusion 100 pmol/min/kg; for Standard IVGTT assay IV infusion (insulin AUC 0-30 min) / IVGTT > = < Compared to 0601GIP3794: rat; for IVGTT > = < Compared to 0601GIP3794: in vivo
Protocol: In the typical IVGTT assays the test sample was administered by IV infusion. The IV infusion of sample was initiated at t=−30 min and continued through t=90. IV glucose was given at t=0. To determine a duration of action using the IVGTT assay, the sample was injected SC as a single injection at one time point indicated (e.g., t=−240, −120, −60 or −30) prior to administration of glucose. IV glucose was given at t=0.
As described, fed, isoflurane anesthetized HSD male rats were intubated and cannulated via femoral artery and vein and allowed to stabilize for 1 hour. […] At t=0, an i.v. bolus of 5.7 mmol/kg D-glucose was administered over 2 minutes. Samples for glucose measurement and insulin concentrations were taken at various time points before and after (0 to 90 minutes) glucose infusion.

[3] = format: in vivo, NIH/Swiss mice
Protocol: as §1
Peptide was injected IP at t=−5 minutes into 4-hour fasted NIH/Swiss female mice. […] In FIG. 17 points represent mean+/−sem. […] Samples were taken at t=60, t=120 and t=180.

[4] = conscious rats, 100 μg; cited from earlier work
[5] = IVGTT duration of action assay (single SC injection before glucose); format: in vivo, rat
Protocol: To determine a duration of action using the IVGTT assay, the sample was injected SC as a single injection at one time point indicated (e.g., t=−240, −120, −60 or −30) prior to administration of glucose. IV glucose was given at t=0.

human GIP receptor = molecular target: T1, human GIP receptor (Homo sapiens, UniProt P48546); assay: biochemical; format: binding
T1 construct: expressed in transfected cells; host or cells: HEK293 (HEK-GIPR), membranes
T1 sequence (P48546 22-466): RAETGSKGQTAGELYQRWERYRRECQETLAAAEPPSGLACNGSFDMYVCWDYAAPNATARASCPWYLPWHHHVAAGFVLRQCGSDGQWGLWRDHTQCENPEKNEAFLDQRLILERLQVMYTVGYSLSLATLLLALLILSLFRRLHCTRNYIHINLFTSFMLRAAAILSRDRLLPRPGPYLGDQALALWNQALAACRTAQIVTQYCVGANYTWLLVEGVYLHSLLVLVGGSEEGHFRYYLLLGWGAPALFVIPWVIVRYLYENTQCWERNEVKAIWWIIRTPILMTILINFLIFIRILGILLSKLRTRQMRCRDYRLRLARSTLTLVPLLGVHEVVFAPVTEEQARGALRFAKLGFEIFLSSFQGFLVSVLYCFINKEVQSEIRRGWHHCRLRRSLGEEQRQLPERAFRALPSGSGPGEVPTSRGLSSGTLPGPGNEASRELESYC

[dAla2]GIP-(1-30)-[Octylglycine 34] Exendin-4 (31-39) [Compound 0601GIP4252]
Basal Glucose Lowering at Peptide Conc. of 80 nmol/kg [1]: −7%, AUC240
Standard IVGTT assay IV infusion (insulin AUC 0-30 min) [2]: 218
IVGTT > = < Compared to 0601GIP3794 [2]: =

octylglycine-GIP(1-30)-Exendin-4-(31-39) [Compound 0601GIP4178]
OGTT/GL (%) ([3]; 350 nmol/kg): −20%
OGTT response ([3]; mouse, in vivo): −20%
Basal Glucose Lowering at Peptide Conc. of 80 nmol/kg [1]: −13%, AUC240
basal glucose lowering (% maximal decrease) [1]: −20%
insulin levels prior to the glucose challenge ([2]; 100 pmol/kg/min infusion, rats): significant rise in insulin levels
insulinotropic response to an intravenous glucose challenge (IVGTT assay) ([2]; 100 pmol/kg/min infusion, rats): diminished insulinotropic response
IVGTT > = < Compared to 0601GIP3794 [2]: <

insulin: peptide hormone
inhibition of gastric emptying at doses of 100 μg [4]: either weakly active or inactive

[dAla2, Leu14, Ala18, glu21] GIP-(1-30)-Exendin-4 (31-39) [Compound 0601GIP4285]
OGTT/GL (%) ([3]; 30 nmol/kg): −17% and −17 30 nmol/kg, %
OGTT/GL (%) ([3]; 350 nmol/kg): −10 350 nmol/kg %
Basal Gluc. Low. 80 nmol/Kg [1]: −2%,
Basal Glucose Lowering at Peptide Conc. of 80 nmol/kg [1]: −2%, AUC240
IVGTT > = < Compared to 0601GIP3794 [2]: =

dAla2-GIP(1-42) acid form [Compound 0601GIP4042]
basal glucose lowering (% maximal decrease) [1]: −11%
insulinotropic response to an intravenous glucose challenge (IVGTT assay) ([2]; 100 pmol/kg/min infusion, rats): significant enhancement of the insulinotropic response

VIP: vasoactive intestinal peptide (HSDAVFTDNYTRLRKQMAVKKYLNSILN; ends and bridges not checked; UniProt P01282 125-152, looked up)
inhibition of gastric emptying at doses of 100 μg [4]: either weakly active or inactive

[dAla2, Leu14, beta-Ala31, beta-Ala32] GIP-(1-32)-Exendin-4 (31-39) [Compound 0601GIP4179]
OGTT/GL (%) ([3]; 30 nmol/kg): −24 30 nmol/kg, %
OGTT/GL (%) ([3]; 350 nmol/kg): −23 350 nmol/kg %
Basal Glucose Lowering at Peptide Conc. of 80 nmol/kg [1]: −17%, AUC240
IVGTT > = < Compared to 0601GIP3794 [2]: =

adrenomedullin: amylin family peptide hormone (YRQSMNNFQGLRSFGCRFGTCTVQKLAHQIYQFTDKDKDNVAPRSKISPQGY; ends and bridges not checked; cysteine pairing not given here; UniProt P35318 95-146, looked up)
inhibition of gastric emptying at doses of 100 μg [4]: either weakly active or inactive

HSDGIFTDSYSRYRKQMAVKKYLAAVLGKRYKQRVKNK-NH2 [PACAP38]
inhibition of gastric emptying at doses of 100 μg [4]: either weakly active or inactive

glucagon: peptide hormone
inhibition of gastric emptying at doses of 100 μg [4]: either weakly active or inactive

Human GIP
Duration of action in assay (insulin AUC 0-30 min) ([5]; SC inj T = −30 min): 57
Standard IVGTT assay IV infusion (insulin AUC 0-30 min) [2]: 226

CC[C@H](C)[C@H](NC(=O)[C@H](C)NC(=O)[C@H](CCCCN)NC(=O)[C@@H]1CCCN1C(=O)[C@H](CCCCN)NC(=O)[C@H](CCC(N)=O)NC(=O)[C@H](C)NC(=O)[C@H](CC(C)C)NC(=O)[C@H](CC(C)C)NC(=O)[C@H](Cc1c[nH]c2ccccc12)NC(=O)[C@H](CC(N)=O)NC(=O)[C@@H](NC(=O)[C@H](Cc1ccccc1)NC(=O)[C@H](CC(=O)O)NC(=O)[C@H](CCC(N)=O)NC(=O)[C@H](CCC(N)=O)NC(=O)[C@H](Cc1c[nH]cn1)NC(=O)[C@@H](NC(=O)[C@H](CCCCN)NC(=O)[C@H](CC(=O)O)NC(=O)[C@H](CCSC)NC(=O)[C@H](C)NC(=O)[C@@H](NC(=O)[C@H](CO)NC(=O)[C@H](Cc1ccc(O)cc1)NC(=O)[C@H](CC(=O)O)NC(=O)[C@H](CO)NC(=O)[C@@H](NC(=O)[C@H](Cc1ccccc1)NC(=O)[C@@H](NC(=O)CNC(=O)[C@H](CCC(=O)O)NC(=O)[C@@H](C)NC(=O)[C@@H](N)Cc1ccc(O)cc1)[C@@H](C)O)[C@@H](C)CC)[C@@H](C)CC)[C@@H](C)CC)C(C)C)C(=O)N[C@@H](CCCNC(=N)N)C(=O)N[C@@H](Cc1ccc(O)cc1)C(=O)N[C@@H](CO)C(N)=O [Compound 0601GIP4816]
OGTT/GL (%) ([3]; 30 nmol/kg): −19%,
Duration In The Rat IVGTT Assay ([5]; compared with 0601GIP3794 (794), dosed at −120 min): <794@ −120 min
inhibition at 0.01 µM (human GIP receptor; read-out: (% Inh 10 nm, GIP-LF Assay)): 87.3%
inhibition at 0.01 µM (human GIP receptor; read-out: GIP RBA (% Inh 10 nM)): 87.3%
Basal Gluc. Low. 80 nmol/Kg [1]: −9%,
